Publication PMC3433420 (PLoS ONE, 2012)
Like-named read-outs stand apart in the source and are kept apart here. Residues, ends and D or L forms follow the SMILES beside them.

Experiments:
PTPN11-N SH2 domain = target: T1, PTPN11-N SH2 domain (Homo sapiens, UniProt Q06124); assay: FP saturation binding assay
T1 sequence (Q06124 6-102 limits assumed): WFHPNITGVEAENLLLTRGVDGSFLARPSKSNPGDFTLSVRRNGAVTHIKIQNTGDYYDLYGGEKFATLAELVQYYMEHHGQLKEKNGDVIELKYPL

SH2D1B SH2 domain = target: T2, SH2D1B SH2 domain (Homo sapiens, UniProt O14796); assay: FP saturation binding assay
T2 sequence (O14796 5-101 limits assumed): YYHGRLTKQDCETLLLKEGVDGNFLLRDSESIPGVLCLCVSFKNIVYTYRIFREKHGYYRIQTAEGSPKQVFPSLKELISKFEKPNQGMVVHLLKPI

[1] = target: T3, PTPN11-NC tandem SH2 domains (Homo sapiens, UniProt Q06124); assay: FP saturation binding assay
T3 sequence (Q06124 6-216 limits assumed): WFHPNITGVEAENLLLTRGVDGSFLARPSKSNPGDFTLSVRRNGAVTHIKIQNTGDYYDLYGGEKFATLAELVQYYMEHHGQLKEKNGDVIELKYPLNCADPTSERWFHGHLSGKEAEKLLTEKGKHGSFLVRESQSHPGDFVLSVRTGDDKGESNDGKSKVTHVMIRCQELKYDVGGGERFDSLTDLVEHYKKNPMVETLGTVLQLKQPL

LCK SH2 domain = target: T4, LCK SH2 domain (Homo sapiens, UniProt P06239); assay: FP saturation binding assay; conditions: protein LCK; high-confidence ErbB interactions; mean of replicate hits
T4 construct: 93 SH2 and 2 PTB domain-containing constructs; 6X His; thioredoxin; made in house; host or cells: E. coli BL21(DE3)pLysS
Procedure, shortened: (§1)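 Rhodamine-labeled peptides (10 nM final) were titrated with 12 SH2 domain concentrations (0.002–10 µM) in 20 mM HEPES, 100 mM KCl, 0.1% Tween-20, 5 mM DTT, pH 7.8. After 20 min at room temperature in the dark, FP (ex 530/em 555 nm) was read. KDs came from nonlinear least-squares fits.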

PTK6 SH2 domain = target: T5, PTK6 SH2 domain (Homo sapiens, UniProt Q13882); assay: FP saturation binding assay; conditions: protein PTK6; high-confidence ErbB interactions; mean of replicate hits
T5 construct: from the PTK6 SH2 domain; 6X His; thioredoxin; made in house; host or cells: E. coli BL21(DE3)pLysS
Procedure, shortened: as §1

RASA1-N SH2 domain = target: T6, RASA1-N SH2 domain (Homo sapiens, UniProt P20936); assay: FP saturation binding assay
T6 sequence (P20936 181-272 limits assumed): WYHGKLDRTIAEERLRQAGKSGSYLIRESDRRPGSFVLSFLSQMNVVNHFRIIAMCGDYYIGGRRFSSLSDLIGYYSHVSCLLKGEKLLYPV

HSH2D SH2 domain = target: T7, HSH2D SH2 domain (Homo sapiens, UniProt Q96JZ2); assay: FP saturation binding assay
T7 sequence (Q96JZ2 34-125 limits assumed): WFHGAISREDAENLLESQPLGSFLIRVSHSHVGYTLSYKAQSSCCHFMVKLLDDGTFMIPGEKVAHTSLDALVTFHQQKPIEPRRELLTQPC

PIK3R3-C SH2 domain = target: T8, PIK3R3-C SH2 domain (Homo sapiens, UniProt Q92569); assay: biochemical; format: binding; conditions: protein PIK3R3-C; high-confidence ErbB interactions; mean of replicate hits
T8 construct: thioredoxin; made in house; host or cells: E. coli BL21(DE3)pLysS

SH2 and PTB domains = conditions: ref Jones et al. 2006 / Kaushansky et al. Mol Biosys 2008 / Kaushansky et al. Chem and Biol 2008, cited from earlier work
Excerpt: Supplement pone.0044471.s022.xlsx, sheet "Most recent PM interactions" | column: Kd || Supplement pone.0044471.s022.xlsx, sheet "All original PM interactions" | column: Kd

GRB2 SH2 domain = GRB2 SH2 domain (Homo sapiens, UniProt P62993); assay: FP saturation binding assay; conditions: for share of the ErbB1 binding FE for GRB2: free energy from FP KDs as percentage of total receptor recruitment (Figure S16)
GRAP2 SH2 domain = target: T9, GRAP2 SH2 domain (Homo sapiens, UniProt O75791); assay: FP saturation binding assay; conditions: for share of the ErbB1 binding FE for GRAP2: free energy from FP KDs as percentage of total receptor recruitment (Figure S16)
T9 sequence (O75791 58-149 limits assumed): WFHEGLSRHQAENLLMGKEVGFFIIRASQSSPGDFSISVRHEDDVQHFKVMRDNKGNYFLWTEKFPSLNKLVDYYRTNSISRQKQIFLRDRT

Sequence of GRB2 SH2 domain (P62993 60-152 limits assumed): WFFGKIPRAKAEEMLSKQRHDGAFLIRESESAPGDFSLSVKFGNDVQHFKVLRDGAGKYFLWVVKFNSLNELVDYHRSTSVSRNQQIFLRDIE
T5 sequence (Q13882 78-170 limits assumed): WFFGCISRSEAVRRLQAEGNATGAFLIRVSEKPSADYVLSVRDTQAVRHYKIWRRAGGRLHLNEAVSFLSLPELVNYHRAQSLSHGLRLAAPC
T4 sequence (P06239 127-224 limits assumed): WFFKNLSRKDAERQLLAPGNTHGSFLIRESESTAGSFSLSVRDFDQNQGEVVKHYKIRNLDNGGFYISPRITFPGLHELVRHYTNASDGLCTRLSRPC

Molecule	Kd (HSH2D SH2 domain) [nM]	Kd (SH2 and PTB domains; protein ABL2) [nM]	Kd (SH2 and PTB domains; protein GRB2) [nM]	Kd (SH2 and PTB domains; protein ITK) [nM]	Kd (SH2 and PTB domains; protein NCK2) [nM]	Kd (SH2 and PTB domains; protein PIK3R1-NC) [nM]	Kd (SH2 and PTB domains; protein PIK3R2-N) [nM]	Kd (SH2 and PTB domains; protein PIK3R2-NC) [nM]	Kd (SH2 and PTB domains; protein PIK3R3-N) [nM]	Kd (SH2 and PTB domains; protein PIK3R3-NC) [nM]	Kd (SH2 and PTB domains; protein RASA1-N) [nM]	Kd (SH2 and PTB domains; protein VAV2) [nM]	share of the ErbB1 binding FE for GRB2 (GRB2 SH2 domain) [%]	share of the ErbB1 binding FE for GRAP2 (GRAP2 SH2 domain) [%]	other results
CC[C@H](C)[C@H](NC(=O)[C@@H]1CCCN1C(=O)[C@@H](NC(=O)[C@H](CCCCN)NC(=O)[C@H](C)NC(=O)[C@H](CCC(=O)O)NC(=O)[C@H](CO)NC(=O)[C@H](Cc1ccc(OP(=O)(O)O)cc1)NC(=O)[C@H](CC(C)C)NC(=O)[C@H](CC(C)C)NC(=O)[C@H](CCC(N)=O)NC(=O)[C@@H](N)CCCCN)[C@@H](C)O)C(=O)N[C@@H](CC(=O)O)C(=O)O [ErbB3 868 13-mer] (HELM PEPTIDE1{K.Q.L.L.[O=C([C@H](Cc1ccc(OP(=O)(O)O)cc1)N[*:1])[*:2]].S.E.A.K.T.P.I.D}$$$$V2.0)	–	–	–	–	–	–	–	–	–	–	–	–	–	–	Kd (PTPN11-N SH2 domain): 3610 nM; Kd (SH2D1B SH2 domain): 4960 nM; Kd [1]: 3680 nM
CC(C)C[C@H](NC(=O)[C@H](CO)NC(=O)[C@H](Cc1c[nH]cn1)NC(=O)[C@H](CC(N)=O)NC(=O)[C@H](Cc1c[nH]c2ccccc12)NC(=O)[C@H](Cc1ccc(OP(=O)(O)O)cc1)NC(=O)[C@H](CC(=O)O)NC(=O)[C@@H]1CCCN1C(=O)[C@H](CC(N)=O)NC(=O)[C@@H](N)CC(=O)O)C(=O)N1CCC[C@H]1C(=O)N1CCC[C@H]1C(=O)N[C@@H](CC(=O)O)C(=O)O [ErbB4 1242 13-mer] (HELM PEPTIDE1{D.N.P.D.[O=C([C@H](Cc1ccc(OP(=O)(O)O)cc1)N[*:1])[*:2]].W.N.H.S.L.P.P.D}$$$$V2.0)	7370	–	–	–	–	–	–	–	–	–	–	–	–	–	Kd (LCK SH2 domain): 4460 nM; Kd (PTK6 SH2 domain): 2760 nM; Kd (RASA1-N SH2 domain): 5030 nM; Kd (PIK3R3-C SH2 domain): 8290 nM
PVPEpYINQSVPKd [ErbB1 pY1092]	–	150	200	220	1100	670	450	1410	510	1020	180	540	50	50	Kd (SH2 and PTB domains; protein ABL1): 920 nM; Kd (SH2 and PTB domains; protein BLK): 300 nM; Kd (SH2 and PTB domains; protein GRB10): 1300 nM; Kd (SH2 and PTB domains; protein PIK3R1-N): 1080 nM; Kd (SH2 and PTB domains; protein PLCG2-NC): 1630 nM; Kd (SH2 and PTB domains; protein SRC): 1790 nM; Kd (SH2 and PTB domains; protein SYK-C): 1920 nM; Kd (SH2 and PTB domains; protein SYK-NC): 910 nM; Kd (SH2 and PTB domains; protein YES1): 340 nM
CC(C)C[C@H](NC(=O)[C@@H]1CCCN1)C(=O)N[C@H](C(=O)N[C@@H](CS)C(=O)N[C@@H](CO)C(=O)N1CCC[C@H]1C(=O)N[C@@H](CCC(N)=O)C(=O)N1CCC[C@H]1C(=O)N[C@@H](CCC(=O)O)C(=O)N[C@@H](Cc1ccc(OP(=O)(O)O)cc1)C(=O)N[C@H](C(=O)N[C@@H](CC(N)=O)C(=O)N[C@@H](CCC(N)=O)C(=O)N1CCC[C@H]1C(=O)N[C@@H](CC(=O)O)C(=O)N[C@H](C(=O)N[C@@H](CCCNC(=N)N)C(=O)N[C@@H](CC(=O)O)C(=O)O)C(C)C)C(C)C)[C@@H](C)O [ErbB2 1139 18-mer] (HELM PEPTIDE1{P.L.T.C.S.P.Q.P.E.[O=C([C@H](Cc1ccc(OP(=O)(O)O)cc1)N[*:1])[*:2]].V.N.Q.P.D.V.R.D}$$$$V2.0)	2820	–	–	–	–	–	–	–	–	–	–	–	–	–	Kd (GRB2 SH2 domain): 1380 nM; Kd (GRAP2 SH2 domain): 560 nM
GNPEpYLNTVQPTd [ErbB1 pY1138]	–	85	720	1760	330	1570	760	860	840	1690	390	370	50	50	Kd (SH2 and PTB domains; protein SHC1-PTB): 130 nM; Kd (SH2 and PTB domains; protein ZAP70-NC): 1140 nM
